From PMC9250296 (Journal of the American Chemical Society, 2021)
Numbered stars: 1 amine (or outer) side, 2 acyl side, 3 side chain; on linkers, the order of the positions; unused ones are H or OH. Bridge positions count the residues as written; N and C are the ends. Square brackets hold non-standard residues; d marks the D form. Peptide text beside a SMILES is read from it. * marks the point of attachment. X1 = O=C([C@@H]1C[C@@H](SCc2cccc(C[*:3])c2)CN1[*:1])[*:2]; X2 = C=CCS[C@@H]1C[C@@H](C(=O)[*:2])N([*:1])C1; Ac3c = NC1(C(=O)O)CC1; Allyl = C=CC*

What was measured:
[1] = CD thermal melts; assay type: physicochemical; details: CD thermal melt, Trp-Trp exciton coupling band at 228 nm, aqueous solution
[2] = HeLa cell lysate stability assay; details: for primary degradation products in HeLa cell lysate: after 24 hours, mass spectrometry; for remaining at 4 h / half-life: human
[3] = in vitro; details: human, cells or culture medium

Compound: C=CCSC[C@H](NC(=O)[C@@H](Cc1ccc(O)cc1)NC(=O)[C@H](Cc1c[nH]c2ccccc12)NC(=O)[C@@H](NC(=O)[C@@H](N)CCCCN)[C@@H](C)O)C(=O)N[C@H](C(=O)N1CCC[C@@H]1C(=O)NC1(C(=O)NCC(=O)N2C[C@H](SCC=C)C[C@H]2C(=O)NCC(=O)N[C@@H](Cc2c[nH]c3ccccc23)C(=O)N[C@H](C(=O)N[C@@H](CCC(=O)O)C(=O)O)[C@@H](C)O)CC1)[C@@H](C)O [4MP-a] (H-KTW[dY]C(Allyl)T[dP][Ac3c]G[X2]GWTE-OH; N-terminus and C-terminus assumed)
- T50 (temperature at which the peptide retains 50% structure) [1]: 50.8 °C
- primary degradation products in HeLa cell lysate [2]: intact except for the two N-terminal amino acids
- remaining at 4 h [2]: ~22%

Compound: C[C@@H](O)[C@H](NC(=O)[C@H](Cc1c[nH]c2ccccc12)NC(=O)CNC(=O)[C@@H]1C[C@@H]2CN1C(=O)CNC(=O)C1(CC1)NC(=O)[C@H]1CCCN1C(=O)[C@H]([C@@H](C)O)NC(=O)[C@@H](NC(=O)[C@@H](Cc1ccc(O)cc1)NC(=O)[C@H](Cc1c[nH]c3ccccc13)NC(=O)[C@@H](NC(=O)[C@@H](N)CCCCN)[C@@H](C)O)CSCc1cccc(c1)CS2)C(=O)N[C@@H](CCC(=O)O)C(=O)O [4MP-m] (H-KTW[dY]CT[dP][Ac3c]G[X1]GWTE-OH; thioether 5-10; N-terminus and C-terminus assumed)
- T50 (temperature at which the peptide retains 50% structure) [1]: 58.5 °C
- primary degradation products in HeLa cell lysate [2]: intact except for the two N-terminal amino acids
- remaining at 4 h [2]: ~7%

Compound: C[C@H](NC(=O)[C@@H]1CCCN1C(=O)[C@H](CC(N)=O)NC(=O)[C@H](Cc1c[nH]c2ccccc12)NC(=O)[C@@H](NC(=O)[C@@H](N)CCCCN)[C@@H](C)O)C(=O)N[C@H](C(=O)NCC(=O)N[C@@H](CCCCN)C(=O)N[C@@H](Cc1c[nH]c2ccccc12)C(=O)N[C@H](C(=O)N[C@@H](CCC(=O)O)C(=O)O)[C@@H](C)O)[C@@H](C)O [HP7, reference compound] (H-KTWNPATGKWTE-OH; N-terminus and C-terminus assumed)
- T50 (temperature at which the peptide retains 50% structure) [1]: 58.7 °C
- remaining at 2 h [3]: ~0%

Compound: C=CCSC[C@H](NC(=O)[C@@H](Cc1ccc(O)cc1)NC(=O)[C@H](Cc1c[nH]c2ccccc12)NC(=O)[C@@H](NC(C)=O)[C@@H](C)O)C(=O)N[C@H](C(=O)N1CCC[C@@H]1C(=O)NC1(C(=O)NCC(=O)N2C[C@H](SCC=C)C[C@H]2C(=O)NCC(=O)N[C@@H](Cc2c[nH]c3ccccc23)C(=O)N[C@H](C(N)=O)[C@@H](C)O)CC1)[C@@H](C)O [Δ4MP-a] (Ac-TW[dY]C(Allyl)T[dP][Ac3c]G[X2]GWT-NH2; N-terminus and C-terminus assumed)
- half-life [2]: 30 h

Compound: CC(=O)N[C@H](C(=O)N[C@@H](Cc1c[nH]c2ccccc12)C(=O)N[C@H](Cc1ccc(O)cc1)C(=O)N[C@H]1CSCc2cccc(c2)CS[C@@H]2C[C@@H](C(=O)NCC(=O)N[C@@H](Cc3c[nH]c4ccccc34)C(=O)N[C@H](C(N)=O)[C@@H](C)O)N(C2)C(=O)CNC(=O)C2(CC2)NC(=O)[C@H]2CCCN2C(=O)[C@H]([C@@H](C)O)NC1=O)[C@@H](C)O [Δ4MP-m] (Ac-TW[dY]CT[dP][Ac3c]G[X1]GWT-NH2; thioether 4-9)
- half-life [2]: 21 h

Compound: CC(=O)N[C@H](C(=O)N[C@@H](Cc1c[nH]c2ccccc12)C(=O)N[C@@H](CC(N)=O)C(=O)N1CCC[C@H]1C(=O)N[C@@H](C)C(=O)N[C@H](C(=O)NCC(=O)N[C@@H](CCCCN)C(=O)N[C@@H](Cc1c[nH]c2ccccc12)C(=O)N[C@H](C(N)=O)[C@@H](C)O)[C@@H](C)O)[C@@H](C)O [ΔHP7] (Ac-TWNPATGKWT-NH2; N-terminus and C-terminus assumed)
- remaining at 2 h [3]: ~19%
